One experiment has as its system E. coli ATCC25922. Nature of the experiment: Antibacterial activity in combination with linezolid, E. coli. Format: cell-based. Particulars: Escherichia coli, linezolid 128 μg/mL, compound 50 μM, OD625 23 h minus 1 h.
For another experiment, the system named is P. aeruginosa PAOl. As to the kind of experiment: Antibacterial activity in combination with linezolid, P. aeruginosa. The class given is cell-based. The settings on record: Pseudomonas aeruginosa, linezolid 128 μg/mL, compound 50 μM, OD625 23 h minus 1 h.

Take `NCC1COC(=O)N(Cc2cc(C=O)cc(OCc3ccc(Cl)cc3Br)c2)C1` (centres unmarked) [Example 7, 3-[[5-(aminomethyl)-2-oxo-l,3-oxazinan-3-yl]methyl]-5-[(2-bromo-4-chloro-phenyl)methoxy]benzaldehyde]: the residual growth (% of uninhibited control) at 50 µM in the experiment with E. coli ATCC25922 is not above 50%.

As for `C[N+]1(Cc2cc(OCCc3c[nH]cn3)cc(OCc3ccc(Cl)cc3Br)c2)CCC(CN)C1` (stereo not drawn) [Example 23, [l-[[3-[(2-bromo-4-chloro-phenyl)methoxy]-5-[2-(7H-imidazol-4-yl)ethoxy]phenyl]methyl]-l-methyl-pyrrolidin-l-ium-3-yl]methanamine], the residual growth (% of uninhibited control) at 50 µM with P. aeruginosa PAOl was not above 50%.

The values are drawn from patent WO2017093157A1, “Piperidine, pyrrolidine and 2-oxo-1,3-oxazinane derivatives as inhibitors of bacterial efflux-pumps for the treatment of microbial infections” (Basilea Pharmaceutica AG, priority 2015, dated 2017).
